Where “and” joins values, the source holds several entries; their conditions need not be identical. Identical values can stand only once. Toxic doses and inconclusive results are not listed. How the source made its calls: active means survival T/C of 150% or more; inactive means T/C below 125% in these data.
Tested on: BDF1 mice, P388 leukemia ip, median survival T/C
Assay: NCI In Vivo Anticancer Drug Screen. Data for tumor model P388 Leukemia (intraperitoneal) in B6D2F1 (BDF1) mice
Conditions: endpoint: median survival time, higher = longer survival
Method in brief: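 Survival ratio, drug arm over vehicle arm, in mice with a transplanted tumour.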

[1] = dose: 50.0 mg/kg/injection, schedule: Q04DX003 (ip), vehicle: water
[2] = dose: 100.0 mg/kg/injection, schedule: Q04DX003 (ip), vehicle: water
[3] = dose: 200.0 mg/kg/injection, schedule: Q01DX009 (ip), vehicle: water
[4] = dose: 200.0 mg/kg/injection, schedule: Q04DX003 (ip), vehicle: water
[5] = dose: 400.0 mg/kg/injection, schedule: Q01DX009 (ip), vehicle: water
[6] = dose: 100.0 mg/kg/injection, schedule: Q04DX003 (ip), vehicle: other
[7] = dose: 50.0 mg/kg/injection, schedule: Q04DX003 (ip), vehicle: Klucel (hydroxypropylcellulose) (HPC)
[8] = dose: 100.0 mg/kg/injection, schedule: Q01DX009 (ip), vehicle: Klucel (hydroxypropylcellulose) (HPC)
[9] = dose: 100.0 mg/kg/injection, schedule: Q04DX003 (ip), vehicle: Klucel (hydroxypropylcellulose) (HPC)
[10] = dose: 200.0 mg/kg/injection, schedule: Q01DX009 (ip), vehicle: Klucel (hydroxypropylcellulose) (HPC)
[11] = dose: 200.0 mg/kg/injection, schedule: Q04DX003 (ip), vehicle: Klucel (hydroxypropylcellulose) (HPC)
[12] = dose: 400.0 mg/kg/injection, schedule: Q01DX009 (ip), vehicle: Klucel (hydroxypropylcellulose) (HPC)
[13] = dose: 400.0 mg/kg/injection, schedule: Q04DX003 (ip), vehicle: Klucel (hydroxypropylcellulose) (HPC)
[14] = dose: 100.0 mg/kg/injection, schedule: Q01DX009 (ip), vehicle: saline with Tween-80
[15] = dose: 25.0 mg/kg/injection, schedule: Q01DX009 (ip), vehicle: saline
[16] = dose: 50.0 mg/kg/injection, schedule: Q01DX009 (ip), vehicle: saline
[17] = dose: 100.0 mg/kg/injection, schedule: Q01DX009 (ip), vehicle: saline
[18] = dose: 100.0 mg/kg/injection, schedule: Q04DX003 (ip), vehicle: saline with Tween-80
[19] = dose: 200.0 mg/kg/injection, schedule: Q04DX003 (ip), vehicle: saline with Tween-80

Measured: T/C

CCCCOB(CI)OCCCC
inactive: dose: 1.56 mg/kg/injection, schedule: Q01DX009 (ip), vehicle: saline 95 % of control | dose: 3.13 mg/kg/injection, schedule: Q01DX009 (ip), vehicle: saline 109 % of control | dose: 6.25 mg/kg/injection, schedule: Q01DX009 (ip), vehicle: saline 89 % of control and 109 % of control

O=C(NCCCl)NC1C(O)OC(CO)C(O)C1O (stereo unspecified)
inactive: dose: 25.0 mg/kg/injection, schedule: Q01DX009 (ip), vehicle: water 109 % of control | dose: 50.0 mg/kg/injection, schedule: Q01DX009 (ip), vehicle: water 120 % of control | [1] 101 % of control | dose: 100.0 mg/kg/injection, schedule: Q01DX009 (ip), vehicle: water 92 % of control | [2] 86 % of control | [3] 91 % of control | [4] 109 % of control | [5] 94 % of control | dose: 400.0 mg/kg/injection, schedule: Q04DX003 (ip), vehicle: water 101 % of control

CCCCNC(C)(C)CSSSCC(C)(C)NCCCC
inactive: dose: 6.25 mg/kg/injection, schedule: Q01DX009 (ip), vehicle: other 110 % of control | dose: 12.5 mg/kg/injection, schedule: Q01DX009 (ip), vehicle: other 86 % of control | dose: 12.5 mg/kg/injection, schedule: Q04DX003 (ip), vehicle: other 98 % of control | dose: 25.0 mg/kg/injection, schedule: Q01DX009 (ip), vehicle: other 114 % of control | dose: 25.0 mg/kg/injection, schedule: Q04DX003 (ip), vehicle: other 117 % of control | dose: 50.0 mg/kg/injection, schedule: Q01DX009 (ip), vehicle: other 110 % of control | dose: 50.0 mg/kg/injection, schedule: Q04DX003 (ip), vehicle: other 117 % of control | [6] 112 % of control

CC(C)(C)/C=N/Nc1ccc([N+](=O)[O-])cc1[N+](=O)[O-]
inactive: [7] 104 % of control | [8] 100 % of control | [9] 104 % of control | [10] 100 % of control | [11] 109 % of control | [12] 95 % of control

CCC(/C=C\C(C)C1CCC2C3CC=C4CC(O)CCC4(C)C3CCC12C)C(C)C (stereo unspecified)
inactive: dose: 50.0 mg/kg/injection, schedule: Q01DX010 (ip), vehicle: saline 104 % of control | dose: 100.0 mg/kg/injection, schedule: Q01DX010 (ip), vehicle: saline 108 % of control | dose: 200.0 mg/kg/injection, schedule: Q01DX010 (ip), vehicle: saline 100 % of control | dose: 400.0 mg/kg/injection, schedule: Q01DX010 (ip), vehicle: saline 91 % of control

Cc1ccccc1C(Br)C1=CC(C)(C)c2ccccc2C1=O (stereo unspecified)
inactive: [8] 95 % of control | [9] 100 % of control | [10] 100 % of control | [11] 104 % of control | [12] 95 % of control | [13] 100 % of control

CC(=O)O[C@@H]1C[C@@]2(C)[C@@H]3CC=C4[C@@H](C[C@H](O)C(=O)C4(C)C)[C@]3(C)C(=O)C[C@]2(C)[C@H]1[C@@](C)(O)C(=O)/C=C/C(C)(C)OC(C)=O
inactive: dose: 12.5 mg/kg/injection, schedule: Q01DX010 (ip), vehicle: carboxymethylcellulose (CMC) 109 % of control | dose: 25.0 mg/kg/injection, schedule: Q01DX010 (ip), vehicle: carboxymethylcellulose (CMC) 122 % of control | dose: 50.0 mg/kg/injection, schedule: Q01DX010 (ip), vehicle: carboxymethylcellulose (CMC) 95 % of control

O=C1NN=C(c2ccc(Br)cc2)CS1
inactive: dose: 50.0 mg/kg/injection, schedule: Q01DX009 (ip), vehicle: saline with Tween-80 100 % of control | [14] 102 % of control

COC(=O)c1cc(=O)n(-c2ccccc2C(F)(F)F)c(SC)n1
inactive: [9] 116 % of control | [13] 123 % of control

COc1cc(OC)cc(C(=O)N2CC2)c1
inactive: dose: 6.25 mg/kg/injection, schedule: Q04DX003 (ip), vehicle: water 105 % of control | dose: 12.5 mg/kg/injection, schedule: Q04DX003 (ip), vehicle: water 98 % of control | dose: 25.0 mg/kg/injection, schedule: Q04DX003 (ip), vehicle: water 105 % of control | [1] 96 % of control | [2] 107 % of control | [3] 100 % of control | [4] 100 % of control | dose: 300.0 mg/kg/injection, schedule: Q01DX009 (ip), vehicle: water 105 % of control | [5] 91 % of control

Cn1cnc(C(N)=S)c1N
inactive: dose: 75.0 mg/kg/injection, schedule: Q04DX003 (ip), vehicle: saline 112 % of control | dose: 100.0 mg/kg/injection, schedule: Q01DX001 (ip), vehicle: Klucel (hydroxypropylcellulose) (HPC) 100 % of control | dose: 150.0 mg/kg/injection, schedule: Q04DX003 (ip), vehicle: saline 100 % of control | dose: 200.0 mg/kg/injection, schedule: Q01DX001 (ip), vehicle: Klucel (hydroxypropylcellulose) (HPC) 95 % of control | dose: 300.0 mg/kg/injection, schedule: Q04DX003 (ip), vehicle: saline 112 % of control | dose: 400.0 mg/kg/injection, schedule: Q01DX001 (ip), vehicle: Klucel (hydroxypropylcellulose) (HPC) 100 % of control

CCCCCOC(CN)C(Cl)(Cl)Cl (stereo unspecified)
inactive: [15] 115 % of control | dose: 33.0 mg/kg/injection, schedule: Q01DX009 (ip), vehicle: saline 100 % of control and 118 % of control | [16] 113 % of control and 122 % of control | dose: 75.0 mg/kg/injection, schedule: Q01DX009 (ip), vehicle: saline 109 % of control

CCC1C/C(=C2/NC3CCCCC3NC2=O)C(=O)O1 (stereo unspecified)
inactive: dose: 25.0 mg/kg/injection, schedule: Q04DX002 (ip), vehicle: saline with Tween-80 101 % of control | dose: 50.0 mg/kg/injection, schedule: Q04DX002 (ip), vehicle: saline with Tween-80 98 % of control | dose: 100.0 mg/kg/injection, schedule: Q04DX002 (ip), vehicle: saline with Tween-80 88 % of control

c1ccc(C[n+]2cccc3ccccc32)cc1
inactive: dose: 6.25 mg/kg/injection, schedule: Q01DX009 (ip), vehicle: Klucel (hydroxypropylcellulose) (HPC) 109 % of control | dose: 6.25 mg/kg/injection, schedule: Q04DX003 (ip), vehicle: saline 100 % of control | dose: 12.5 mg/kg/injection, schedule: Q01DX009 (ip), vehicle: Klucel (hydroxypropylcellulose) (HPC) 90 % of control | dose: 12.5 mg/kg/injection, schedule: Q04DX003 (ip), vehicle: saline 100 % of control | dose: 25.0 mg/kg/injection, schedule: Q01DX009 (ip), vehicle: Klucel (hydroxypropylcellulose) (HPC) 90 % of control | dose: 25.0 mg/kg/injection, schedule: Q04DX003 (ip), vehicle: saline 104 % of control

Nc1[nH]c(=O)nc2nc[nH]c12
inactive: [15] 112 % of control | [16] 98 % of control | [17] 119 % of control

CN(C)c1ccc(C(C#N)(c2ccc(N(C)C)cc2)c2ccc(N(C)C)cc2)cc1
inactive: [7] 100 % of control | [9] 100 % of control | [11] 95 % of control

CCOC(=O)C(C)C(OCC)OCC (stereo unspecified)
inactive: [14] 95 % of control | [18] 100 % of control | dose: 200.0 mg/kg/injection, schedule: Q01DX009 (ip), vehicle: saline with Tween-80 109 % of control | [19] 91 % of control | dose: 400.0 mg/kg/injection, schedule: Q01DX009 (ip), vehicle: saline with Tween-80 109 % of control | dose: 400.0 mg/kg/injection, schedule: Q04DX003 (ip), vehicle: saline with Tween-80 100 % of control

CCc1ccccc1NC(=O)c1ccccc1Cl
inactive: [6] 109 % of control | dose: 200.0 mg/kg/injection, schedule: Q04DX003 (ip), vehicle: other 104 % of control | dose: 400.0 mg/kg/injection, schedule: Q04DX003 (ip), vehicle: other 90 % of control

Cc1nc2c(N)nn(C)c2nc1C
inactive: [18] 100 % of control | [19] 100 % of control

COc1ccc(OC)c2c1C(=O)CC2C (stereo unspecified)
inactive: [15] 105 % of control | [16] 91 % of control | [17] 98 % of control

— PubChem BioAssay AID328 (DTP/NCI, 2004)
